Converted amounts (≈) assume the structure as drawn.
Key:
[1] = system: K. pneumoniae 848844 producing SHV-11 and KPC-2; assay: Broth microdilution MIC in CAMHB; type: cell-based; conditions: Klebsiella pneumoniae, read-out: Minimum Inhibitory Concentration, K. pneumoniae 848844
Method: (§1) Example III: In Vitro Antibacterial Assays
(§2) To determine the ability of test compounds to inhibit the growth of bacterial strains, classic cell based broth microdilution minimum inhibitory concentration (MIC) assays were employed. MIC assays are performed according to CLSI methods except where otherwise noted (CLSI, 2018 and CLSI, 2019). The reference type strain E. coli ATCC 25922; the wild-type parent strain E. coli AG100; the hyper-permeable E. coli 901C and E. coli D22; and the E. coli AG100A strain lacking the acrAB efflux pump encoding genes were used to determine the ability of the PBP inhibitors to penetrate the outer membrane of gram-negative bacteria and inhibit bacterial growth. […] The P. aeruginosa ATCC 27853 and A. baumannii ATCC 19606, along with the hyper-permeable P. aeruginosa ATCC 35151 and an engineered efflux pump-compromised strain of P. aeruginosa (ΔmexAB-oprM) were used to determine the ability of PBP inhibitors to penetrate the outer membrane of P. aeruginosa and A. baumannii and assess antibacterial activity against these important gram-negative organisms.
(§3) Briefly, cryo-preserved bacterial cultures of challenge strains are streaked for isolation on appropriate agar medium, in this case cation-adjusted Mueller Hinton agar. Following incubation to allow growth of the colonies, plates are sealed with parafilm and stored refrigerated for up to two weeks. For preparation of assay inoculum and to ensure low variability, at least 5 colonies are picked from the agar plates with an inoculating loop and aseptically transferred to a culture tube containing 3 mL of cation-adjusted Mueller Hinton broth (CAMHB). The broth culture is grown for 3-5 hours at 37° C. with shaking at 200 rpm. Meanwhile, 2-fold serial dilutions of test compounds are conducted in a 96-well plate with a final volume of 75 μL per well at 2-fold the final desired concentration. After the dilution plates are set up the growing cultures are then diluted in a cuvette containing CAMHB and the optical density is measured at 600 nm. The inoculum is diluted such that 75 μL of this culture in CAMHB results in a starting bacterial concentration of 2-8×10^5 CFU/mL when added to the dilution plates. The plates are incubated for 16-20 hours for Enterobacteriaceae and Pseudomonas and 20-24 hours for Acinetobacter at 37° C. The MIC values are read visually as the lowest concentration well with no bacterial growth.

E. coli D22 = assay: Broth microdilution MIC in CAMHB; type: cell-based; conditions: Escherichia coli; MHB; hyper-permeable E. coli D22; read-out: Minimum Inhibitory Concentration, E. coli D22
Method: as §1, §2, §3

E. coli AG100 = assay: Broth microdilution MIC in CAMHB; type: cell-based; conditions: Escherichia coli; MHB; wild-type parent strain E. coli AG100; read-out: Minimum Inhibitory Concentration, E. coli AG100
Method: as §1, §2, §3

P. aeruginosa ATCC 35151 = assay: Broth microdilution MIC in CAMHB; type: cell-based; conditions: Pseudomonas aeruginosa, ATCC35151; MHB; hyper-permeable strain; read-out: Minimum Inhibitory Concentration, P. aeruginosa ATCC 35151
Method: as §1, §2, §3

E. coli AG100A = assay: Broth microdilution MIC in CAMHB; type: cell-based; conditions: Escherichia coli, read-out: Minimum Inhibitory Concentration, E. coli AG100A
Method: as §1, §2, §3

[2] = system: P. aeruginosa (ΔmexAB-oprM); assay: Broth microdilution MIC in CAMHB; type: cell-based; conditions: Pseudomonas aeruginosa, read-out: Minimum Inhibitory Concentration, P. aeruginosa ΔmexAB-OprM
Method: as §1, §2, §3

[3] = system: K. pneumoniae SI-117 producing VIM-1; assay: Broth microdilution MIC in CAMHB; type: cell-based; conditions: Klebsiella pneumoniae, read-out: Minimum Inhibitory Concentration, K. pneumoniae SI-117
Method: as §1, §2, §3

[4] = system: K. pneumoniae UMM producing SHV-5 and KPC-2; assay: Broth microdilution MIC in CAMHB; type: cell-based; conditions: Klebsiella pneumoniae, read-out: Minimum Inhibitory Concentration, K. pneumoniae UMM
Method: as §1, §2, §3

E. coli ATCC 25922 = assay: Broth microdilution MIC in CAMHB; type: cell-based; conditions: Escherichia coli, ATCC25922; MHB; E. coli ATCC 25922; read-out: Minimum Inhibitory Concentration, E. coli 25922
Method: as §1, §2, §3

A. baumannii ATCC 19606 = assay: Broth microdilution MIC in CAMHB; type: cell-based; conditions: Acinetobacter baumannii, ATCC19606; MHB; read-out: Minimum Inhibitory Concentration, A. baumannii ATCC 19606
Method: as §1, §2, §3

E. coli 901C = assay: Broth microdilution MIC in CAMHB; type: cell-based; conditions: Escherichia coli; MHB; hyper-permeable E. coli 901C; read-out: Minimum Inhibitory Concentration, E. coli 901C
Method: as §1, §2, §3

P. aeruginosa ATCC 27853 = assay: Broth microdilution MIC in CAMHB; type: cell-based; conditions: Pseudomonas aeruginosa, ATCC27853; MHB; read-out: Minimum Inhibitory Concentration, P. aeruginosa ATCC 27853
Method: as §1, §2, §3

E. coli K12 PBP3 = target: T1, E. coli K12 PBP3 (Escherichia coli, UniProt P0AD68); assay: biochemical; type: binding
T1 construct: made in house
From the text: Example I: Experimental Method for Penicillin-Binding Protein Binding Assays with Bocillin-FL Via Fluorescence Polarization
To determine the ability of boronic acid-based test PBP inhibitors to bind Penicillin Binding Proteins (PBPs), Bocillin-FL (fluorescently-labeled penicillin V; ThermoFisher Scientific) was used in a fluorescence polarization (FP) competition binding assay to assess inhibitor binding to PBP2, PBP3 or PBP4 from Escherichia coli (K12), PBP3 from Pseudomonas aeruginosa (PA01), PBP1a, PBP2 and PBP3 from Acinetobacter baumannii (ATCC 19606), and PBP2 from Neiserria gonorrheae (FA19). PBPs were cloned and purified as described previously (E. coli PBPs, King, D. T, et al., ACS Infectious Diseases 2015, 1, 175-184; P. aeruginosa PBP3, Han et. al., PNAS 2010, 107 (51), 22002-22007; A. baumannii PBPs, Penwell et. al., Antimicrob. Agents Chemother. 2015, 59 (3), 1680-1689; N. gonorrhoeae PBP2, Singh et. al., J Biol. Chem. 2019, 294 (38), 14020-14032). To establish assay conditions for competition binding, enzyme titration/saturation binding experiments were initially performed. Bocillin-FL was prepared at 0.2 μM in a buffer comprised of 50 mM Hepes (pH 8.0), 300 mM NaCl and 5% (v/v) glycerol for reactions with E. coli, P. aeruginosa and N. gonorrhoeae PBPs, and 25 mM Tris (pH 8.0), 200 mM NaCl and 10% (v/v) glycerol and 0.005% (v/v) Tween 20 for reactions with A. baumannii PBPs. Saturation binding was performed by mixing 40 μl of PBP solutions ranging in concentrations from 0-24 μM with 40 μl of the 0.2 μM Bocillin-FL solution, in individual wells of a black 384-well microplate. FP was measured immediately upon mixing (Excitation, 490 nm; Emission, 520 nm; g-factor, 0.96), using a Cytation3 (BioTek) microplate reader and measured continuously for up to 120 minutes. […] The competition binding assay (80 μl final volume) was validated using beta-lactams and PBPs at final concentrations of: 1.5 μM, E. coli PBP3; 0.75 μM, P. aeruginosa PBP3; 1 μM A. baumannii PBP1a; 2.5 μM A. baumannii PBP2; 0.2 μM A. baumannii PBP3; and […] N. gonorrhoeae PBP2. Bocillin-FL was at 0.1 μM (0.05 μM with A. baumannii PBP1a) and beta-lactam concentrations ranged from 0-1000 μM. […] Bocillin-FL was added and the FP immediately measured for up to 60 minutes (90 minutes for E. coli PBP2). […] The beta-lactam potency was reported as the concentration of beta-lactam required to reduce the amount of PBP bound-Bocillin-FL by 50% (EC50). […] Binding assays for boronic acid PBP inhibitors were performed in an identical fashion for the respective PBPs

T1 sequence (P0AD68 1-577): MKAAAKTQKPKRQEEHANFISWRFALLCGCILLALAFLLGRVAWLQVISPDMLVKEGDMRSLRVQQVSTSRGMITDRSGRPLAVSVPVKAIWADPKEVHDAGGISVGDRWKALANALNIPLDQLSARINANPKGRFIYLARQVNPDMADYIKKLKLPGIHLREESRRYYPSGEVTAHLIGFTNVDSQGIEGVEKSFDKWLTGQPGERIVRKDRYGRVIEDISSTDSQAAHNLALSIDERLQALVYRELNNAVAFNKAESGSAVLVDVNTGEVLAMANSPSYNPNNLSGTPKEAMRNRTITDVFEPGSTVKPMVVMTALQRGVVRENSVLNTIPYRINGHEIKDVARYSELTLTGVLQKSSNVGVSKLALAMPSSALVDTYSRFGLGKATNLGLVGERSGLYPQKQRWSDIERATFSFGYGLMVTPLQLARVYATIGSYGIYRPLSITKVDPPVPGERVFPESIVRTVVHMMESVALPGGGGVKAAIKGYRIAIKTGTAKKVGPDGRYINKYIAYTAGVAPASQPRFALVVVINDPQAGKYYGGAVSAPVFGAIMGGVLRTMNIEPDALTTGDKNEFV

Row | SMILES | MIC [1] [µg/mL] | MIC (E. coli D22) [µg/mL] | MIC (E. coli AG100) [µg/mL] | MIC (P. aeruginosa ATCC 35151) [µg/mL] | MIC (E. coli AG100A) [µg/mL] | MIC [2] [µg/mL] | MIC [3] [µg/mL] | MIC [4] [µg/mL] | MIC (E. coli ATCC 25922) [µg/mL] | MIC (A. baumannii ATCC 19606) [µg/mL] | MIC (E. coli 901C) [µg/mL] | MIC (P. aeruginosa ATCC 27853) [µg/mL] | EC50 (E. coli K12 PBP3) [µM]
1 | NCCN1CCCN(C(=O)N[C@H](C(=O)N[C@H]2Cc3cccc(C(=O)O)c3OB2O)c2c(F)cc(O)cc2F)C1=O (single isomer, unassigned) [Example 231] | > 128 | > 128 | > 128 | 8 to 16 (≈ 14.3 to 28.5 µM) | > 128 | > 128 | > 128 | 32 to 64 (≈ 57 to 114 µM) | > 128 | > 128 | > 128 | > 128 | 30 to 500
2 | NC1(CN2CCN(C(=O)N[C@@H](C(=O)N[C@H]3Cc4cccc(C(=O)O)c4OB3O)c3ccc(O)c(F)c3F)C(=O)C2=O)CC1 (single isomer, unassigned) [Example 236] | 32 to 64 (≈ 53.2 to 106 µM) | 32 to 64 (≈ 53.2 to 106 µM) | 32 to 64 (≈ 53.2 to 106 µM) | < 0.25 | 32 to 64 (≈ 53.2 to 106 µM) | 2 to 4 (≈ 3.33 to 6.65 µM) | 2 to 4 (≈ 3.33 to 6.65 µM) | 0.5 to 1 (≈ 0.831 to 1.66 µM) | 32 to 64 (≈ 53.2 to 106 µM) | > 128 | 32 to 64 (≈ 53.2 to 106 µM) | > 128 | < 30
3 | NC1(CN2CCN(C(=O)N[C@H](C(=O)N[C@H]3Cc4cccc(C(=O)O)c4OB3O)c3ccc(O)c(F)c3F)C(=O)C2=O)CC1 (single isomer, unassigned) [Example 237] | > 128 | > 128 | > 128 | 0.5 to 1 (≈ 0.831 to 1.66 µM) | > 128 | 8 to 16 (≈ 13.3 to 26.6 µM) | 32 to 64 (≈ 53.2 to 106 µM) | 2 to 4 (≈ 3.33 to 6.65 µM) | > 128 | > 128 | > 128 | > 128 | 30 to 500
4 | O=C(O)c1cccc2c1OB(O)[C@@H](NC(=O)C(NC(=O)N1CCN(CCF)C(=O)C1=O)c1ccc(O)c(F)c1F)C2 (stereo partly drawn) [Example 235, (3R)-3-(2-(2,3-difluoro-4-hydroxyphenyl)-2-(4-(2-fluoroethyl)-2,3-dioxopiperazine-1-carboxamido)acetamido)-2-hydroxy-3,4-dihydro-2H-benzo[e][1,2]oxaborinine-8-carboxylic acid] | 32 to 64 (≈ 55.3 to 111 µM) | 32 to 64 (≈ 55.3 to 111 µM) | 32 to 64 (≈ 55.3 to 111 µM) | 0.5 to 1 (≈ 0.865 to 1.73 µM) | 32 to 64 (≈ 55.3 to 111 µM) | 8 to 16 (≈ 13.8 to 27.7 µM) | 2 to 4 (≈ 3.46 to 6.92 µM) | < 0.25 | 8 to 16 (≈ 13.8 to 27.7 µM) | > 128 | 32 to 64 (≈ 55.3 to 111 µM) | > 128 | < 30
5 | C[C@H]1CN(CCF)C(=O)C(=O)N1C(=O)NC(C(=O)N[C@H]1Cc2cccc(C(=O)O)c2OB1O)c1cc(F)c(O)c(F)c1F (stereo partly shown) [Example 248] | 32 to 64 (≈ 52.4 to 105 µM) | 8 to 16 (≈ 13.1 to 26.2 µM) | 32 to 64 (≈ 52.4 to 105 µM) | 2 to 4 (≈ 3.28 to 6.55 µM) | 32 to 64 (≈ 52.4 to 105 µM) | 8 to 16 (≈ 13.1 to 26.2 µM) | 0.5 to 1 (≈ 0.819 to 1.64 µM) | < 0.25 | 8 to 16 (≈ 13.1 to 26.2 µM) | > 128 | > 128 | > 128 | 
6 | O=C(O)c1cccc2c1OB(O)[C@@H](NC(=O)C(NC(=O)N1CCN(CCBr)C(=O)C1=O)c1ccc(O)c(F)c1F)C2 (stereo partly drawn) [Example 249, (3R)-3-(2-(4-(2-bromoethyl)-2,3-dioxopiperazine-1-carboxamido)-2-(2,3-difluoro-4-hydroxyphenyl)acetamido)-2-hydroxy-3,4-dihydro-2H-benzo[e][1,2]oxaborinine-8-carboxylic acid] | 32 to 64 (≈ 50.1 to 100 µM) | 32 to 64 (≈ 50.1 to 100 µM) | > 128 | 0.5 to 1 (≈ 0.782 to 1.56 µM) | 32 to 64 (≈ 50.1 to 100 µM) | 8 to 16 (≈ 12.5 to 25 µM) | 2 to 4 (≈ 3.13 to 6.26 µM) | < 0.25 | 32 to 64 (≈ 50.1 to 100 µM) | > 128 | > 128 | > 128 | 
7 | CCN1CCN(C(=O)NC(C(=O)N[C@H]2Cc3cccc(C(=O)O)c3OB2O)c2ccc(P(=O)(O)O)cc2)C(=O)C1=O (stereo partly drawn) [Example 250, (3R)-3-(2-(4-ethyl-2,3-dioxopiperazine-1-carboxamido)-2-(4-phosphonophenyl)acetamido)-2-hydroxy-3,4-dihydro-2H-benzo[e][1,2]oxaborinine-8-carboxylic acid] | > 128 | 32 to 64 (≈ 54.4 to 109 µM) | > 128 | 2 to 4 (≈ 3.4 to 6.8 µM) | > 128 | 8 to 16 (≈ 13.6 to 27.2 µM) | 2 to 4 (≈ 3.4 to 6.8 µM) | < 0.25 | 32 to 64 (≈ 54.4 to 109 µM) | 32 to 64 (≈ 54.4 to 109 µM) | > 128 | > 128 | 
8 | Nc1nc(C(=O)NC(C(=O)N[C@H]2Cc3cccc(C(=O)O)c3OB2O)c2c(F)cc(O)cc2F)cs1 (stereo partly drawn) [Example 251, (3R)-3-(2-(2-aminothiazole-4-carboxamido)-2-(2,6-difluoro-4-hydroxyphenyl)acetamido)-2-hydroxy-3,4-dihydro-2H-benzo[e][1,2]oxaborinine-8-carboxylic acid] | > 128 | > 128 | > 128 | 2 to 4 (≈ 3.86 to 7.72 µM) | > 128 | 32 to 64 (≈ 61.7 to 123 µM) | 8 to 16 (≈ 15.4 to 30.9 µM) | 2 to 4 (≈ 3.86 to 7.72 µM) | > 128 | > 128 | > 128 | > 128 | 

From US20230114728A1 (Venatorx Pharmaceuticals, Inc., priority 2019, published 2023)
